Values quoted from earlier work, collected in US8754055B2, “Methods, compositions, and kits for collecting and detecting oligonucleotides” (The Invention Science Fund I, LLC, priority 2008, dated 2014).
Like-named read-outs stand apart in the source and are kept apart here.

Legend:
[1] = in humans
[2] = 40, 8, and 1.6 μg injections once daily over 35 days
RNase A = molecular target: T1, RNase A (Bos taurus, UniProt P61823); conditions: RNAse A catalysis, read-out: inhibition constant (Ki)
T1 sequence (P61823 27-150): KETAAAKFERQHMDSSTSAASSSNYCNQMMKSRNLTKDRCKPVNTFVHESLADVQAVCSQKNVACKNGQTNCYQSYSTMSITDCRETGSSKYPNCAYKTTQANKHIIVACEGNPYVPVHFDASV

Question: For Etanercept, which half-life [1] is on record?
Answer: The half-life was 70 h.

Question: Which overt toxicity [2] does the source give for `Nc1ccc(N=Nc2ccc(-c3ccc(O)cc3)cc2)c2ccc(S(=O)(=O)O)cc12` [8-amino-5-(4′-hydroxylbiphenyl-4-ylazo)naphthalene-2-sulfonate] here?
Answer: The overt toxicity was “without overt toxicity”.

Question: For oligo(vinylsulfonic acid), which Ki (RNase A; 0 mM sodium chloride (lower end of salt-dependent range)) is on record?
Answer: The Ki was about 0.01 nM.

Question: What about the Ki (RNase A; 100 mM sodium chloride (upper end of salt-dependent range)) of the same molecule?
Answer: Its Ki is about 120 nM.
